We go through 18 compounds from patent publication EP4782453A1 (Beyang Therapeutics Co., Ltd., priority 2023, dated 2025).

The target in one test is T1, Menin-MLL (Homo sapiens, UniProt O00255).
T1 construct: His-Menin (M1-L615 end); purchased BIORTUS BP9210
T1 sequence (O00255 1-615 isoform O00255-1): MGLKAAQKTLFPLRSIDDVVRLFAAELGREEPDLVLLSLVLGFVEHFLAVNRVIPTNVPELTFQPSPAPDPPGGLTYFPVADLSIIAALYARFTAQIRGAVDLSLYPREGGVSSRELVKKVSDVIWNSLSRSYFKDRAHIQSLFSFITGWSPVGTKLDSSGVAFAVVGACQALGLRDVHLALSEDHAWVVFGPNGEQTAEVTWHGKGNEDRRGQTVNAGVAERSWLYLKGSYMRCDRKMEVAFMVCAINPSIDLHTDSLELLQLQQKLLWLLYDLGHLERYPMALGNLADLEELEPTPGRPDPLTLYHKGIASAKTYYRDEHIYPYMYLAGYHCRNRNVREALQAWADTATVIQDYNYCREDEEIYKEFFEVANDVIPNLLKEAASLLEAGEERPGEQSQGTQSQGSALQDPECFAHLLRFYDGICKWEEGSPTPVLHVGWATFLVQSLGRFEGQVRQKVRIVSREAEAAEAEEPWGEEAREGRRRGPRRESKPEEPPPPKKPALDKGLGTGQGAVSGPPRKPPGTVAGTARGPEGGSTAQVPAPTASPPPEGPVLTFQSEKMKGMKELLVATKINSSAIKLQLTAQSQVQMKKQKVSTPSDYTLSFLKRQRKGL
Put plainly: Inhibitory activity against Menin-MLL binding (fluorescence polarization). Particulars: 150 nM His-Menin, 15 nM FITC-MLL, 25°C for 60 min. A digest of the protocol:
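His-Menin (M1-L615, 150 nM) preincubated with compound 15 min at 25 °C in HEPES pH 7.5, 50 mM NaCl, 1 mM DTT, 0.01% BSA, then 15 nM FITC-MLL4-43 peptide added for 60 min at 25 °C. Fluorescence polarization read; IC50 from 4-parameter logistic fit, duplicates.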

The test system of test [1] is MV-4-11 (carrying MLL-AF4). Put plainly: Inhibition of proliferation of human tumor cells (Alamar Blue, 7 days), MV-4-11. In kind it is cell-based. Particulars: MV-4-11 cells (carrying MLL-AF4), method calls the value GI50. An excerpt: Experimental Example 2: Evaluation of Inhibitory Activity of Compounds Against Proliferation of Human Tumor Cells
• Human acute lymphoblastic leukemia cells MV-4-11, purchased from American Type Culture Collection, Catalog Number: CRL-9591; • Human acute myeloid leukemia cells MOLM-13, purchased from COBIOER BIOSCIENCES CO., LTD, Catalog Number: CBP60678; • Human acute myeloid leukemia cells KG-1a, purchased from American Type Culture Collection, Catalog Number: CCL-246.1; • Inverted Microscope, purchased from Olympus Tokyo; • Countess™ Automated Cell Counter, purchased from Invitrogen, Model: C10281; and • Multilabel Reader, purchased from Bio-Tek, Model: Synergy HT.
MV-4-11 cells were cultured in an IMDM medium containing 10% fetal bovine serum, KG-a cells were cultured in an IMDM medium containing 20% fetal bovine serum, or MOLM-13 cells were cultured in an RPMI-1640 medium containing 20% fetal bovine serum, each supplemented with 100 U·mL^-1 penicillin and 100 µg·mL^-1 streptomycin. These cells were cultured at 37°C with 5% CO2. The suspensions of individual cell lines were prepared in their respective media and seeded into 96-well plates at a density of 4,000 cells/well for MV-4-11 and MOLM-13 cells, or 3,000 cells/well for KG-1a cells. On the day of the experiment, a compound stock solution was diluted in a 3-fold or 4-fold gradient using DMSO. Each gradient-diluted stock solution was then further diluted 250-fold with a complete medium to prepare a series of working solutions at different concentrations. Subsequently, 100 µL of working solution (containing a 2-fold concentration series of the test compound) was added to each well, with duplicate wells set up for each concentration.
Seven days after compound addition (on Day 7), an Alamar Blue assay reagent (MCE, HY-111391 / CS-0040317) was added to measure the fluorescence intensity in each well. Wells containing the cells in the growth medium supplemented with 0.1% DMSO (Day 7) served as high-read control wells. The readouts from the wells containing the cells in the growth medium supplemented with 0.1% DMSO on the day of compound addition (Day 0) served as low-reading control well. GraphPad Prism software was used to calculate the concentration required to inhibit 50% of cell proliferation (GI50), which serves as a cell proliferation inhibition activity index.
In general terms: Alamar Blue is a resazurin reagent that responds to reducing activity.

Test [2] relates to MOLM-13 (carrying MLL-AF9). The experiment in a line: Inhibition of proliferation of human tumor cells (Alamar Blue, 7 days), MOLM-13. The conditions noted are these: MOLM-13 cells (carrying MLL-AF9), method calls the value GI50. The test is classed as cell-based. A digest of the protocol: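 Cells seeded at 4,000/well (MV-4-11, MOLM-13) or 3,000/well (KG-1a) in serum-supplemented IMDM or RPMI-1640, 37°C, 5% CO2, then exposed to 3- or 4-fold compound dilutions in duplicate for 7 days. Alamar Blue fluorescence read; GI50 derived against Day 7 0.1% DMSO (high) and Day 0 (low) controls.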

Where [3] appears, read: fluorescence polarization, read-out: Menin-MLL IC50.
The mark [4] stands for this setting: Menin-MLL IC50, fluorescence polarization.

Molecules are shown by their SMILES. Like-named read-outs stand apart in the source and are kept apart here.

Turning to `Cc1nc(F)c2c(-c3ccc(F)cc3C(=O)N3[C@H](C)COC[C@H]3C)cc(C3CN([C@@H](C)C4CCOCC4)C3)cn12` [Example 209-2, (3R,5R)-4-[5-fluoro-2-(1-fluoro-3-methyl-6-{1-[(1S)-1-(oxacyclohexan-4-yl)ethyl]azacyclobutan-3-yl}imidazo[1,5-a]pyridin-8-yl)benzoyl]-3,5-dimethylmorpholine], the IC50 on Menin-MLL (setting [3]) came to 0.0045 µM; in test [1] (Homo sapiens, MV4-11, 168 h), 0.002 µM; in test [2] (Homo sapiens, 168 h) it was 0.005 µM.

Regarding `Cc1nc(F)c2c(-c3ccc(F)cc3C(=O)N3CCOC[C@H]3C)cc(C3CN(C(CC[C@H]4CNCCO4)C(C)C)C3)cn12` (stereo partly drawn) [Example 244, (3R)-4-{5-fluoro-2-[1-fluoro-3-methyl-6-(1-{4-methyl-1-[(2S)-morpholin-2-yl]pentan-3-yl}azacyclobutan-3-yl)imidazo[1,5-a]pyridin-8yl]benzoyl}-3-methylmorpholine], the IC50 on Menin-MLL (setting [3]) turned out to be 0.017 µM; in test [1] (Homo sapiens, MV4-11, 168 h) it was 0.013 µM; in test [2] (Homo sapiens, 168 h) it was 0.064 µM.

For the compound `CC(=O)N1CCC(CN2CC(Cc3cc(-c4ccc(F)cc4C(=O)N(CC(F)F)C(C)C)c4cncc(C)n34)C2)CC1` [Example 210], the half-inhibitory concentration (IC50) stood at 0.003 µM at Menin-MLL (setting [3]); 0.0071 µM in test [1] (Homo sapiens, MV4-11, 168 h); 0.041 µM in test [2] (Homo sapiens, 168 h).

Take `CCN(C(=O)c1cc(F)ccc1-c1cc([C@H]2CCN(C[C@]3(O)CC[C@H](NS(=O)(=O)CC)CC3)C2)cc2c1cnn2C)C(C)C` [Compound 55-1-1, N-ethyl-5-fluoro-2-[1-methyl-6-[(3R)-1-{[(1r,4s)-4-ethanesulfonamido-1-hydroxylcyclohexyl]methyl}pyrrolidin-3-yl]-1H-indazol-4-yl]-N-(isopropyl)benzamide]: the IC50 at Menin-MLL (setting [3]) stood at 0.014 µM; in test [1], 0.0185 µM; in test [2] it was 0.044 µM.

As to `Cc1nc(F)c2c(-c3ccc(F)cc3C(=O)N3CCOC[C@H]3C)cc(C3CN([C@@H](CC[C@H]4CNCCO4)C(C)C)C3)cn12` [Example 244-2, (3R)-4-[5-fluoro-2-(1-fluoro-3-methyl-6-{1-[(3S)-4-methyl-1-[(2S)-morpholin-2-yl]pentan-3-yl]azacyclobutan-3-yl}imidazo[1,5-a]pyridin-8yl)benzoyl]-3-methylmorpholine], the IC50 was found to be 0.034 µM on Menin-MLL (setting [3]); 0.054 µM in test [1] (Homo sapiens, MV4-11, 168 h); 0.13 µM in test [2] (Homo sapiens, 168 h).

With `CCS(=O)(=O)N[C@H]1CC[C@H](CN2CCC(c3cc(-c4ccc(F)cc4C(=O)N(CC(F)F)C(C)C)c4cnc(C)n4c3)CC2)CC1` [Example 128], the IC50 on Menin-MLL (setting [4]) is 0.037 µM; in test [1] (Homo sapiens, MV4-11, 168 h), 0.056 µM; in test [2] (Homo sapiens, MOLM-13, 168 h) it was 0.03 µM.

Take `CCS(=O)(=O)N[C@H]1CC[C@H](CN2CC(c3cc(-c4ccc(F)cc4C(=O)N(CC(F)F)C(C)C)c4c(F)nc(C)n4c3)C2)CC1` [Example 132, N-(2,2-difluoroethyl)-5-fluoro-2-[1-fluoro-3-methyl-6-(1-{[(1r,4r)-4-ethanesulfonamidocyclohexyl]methyl}-azacyclobutan-3-yl)imidazo[1,5-a]pyridin-8-yl]-N-(isopropyl)benzamide]: the IC50 at Menin-MLL (setting [4]) was 0.006 µM; in test [1] (Homo sapiens, MV4-11, 168 h), 0.017 µM; in test [2] (Homo sapiens, MOLM-13, 168 h) it was 0.016 µM.

As to `Cc1nc(F)c2c(-c3ccc(F)cc3C(=O)N3[C@H](C)COC[C@H]3C)cc(C3CN(CC4CCN(C(=O)N5CC(F)(F)C5)CC4)C3)cn12` [Example 242], the IC50 is 0.0095 µM at Menin-MLL (setting [3]); 0.0059 µM in test [1] (Homo sapiens, MV4-11, 168 h); 0.028 µM in test [2] (Homo sapiens, 168 h).

`CO[C@H]1CCN(CCC[C@H](C(C)C)N2CC(c3cc(-c4ccc(F)cc4C(=O)N4CCOC[C@H]4C)c4cnn(C)c4c3)C2)C1` [Example 184-2]: the IC50 is 0.013 µM on Menin-MLL (setting [3]); 0.0063 µM in test [1] (Homo sapiens, MV4-11, 168 h); 0.034 µM in test [2] (Homo sapiens, 168 h).

For the compound `COCC(=O)N1CCC(CN2CC(c3cc(-c4ccc(F)cc4C(=O)N4[C@H](C)COC[C@H]4C)c4c(F)nc(C)n4c3)C2)CC1` [Example 224], the IC50 at Menin-MLL (setting [3]) came to 0.026 µM; in test [1] (Homo sapiens, MV4-11, 168 h), 0.014 µM; in test [2] (Homo sapiens, 168 h) it was 0.036 µM.

With `Cc1nc(F)c2c(-c3ccc(F)cc3C(=O)N3CCOC[C@H]3C)cc(C3CN([C@@H](C)C4CCN(C(=O)C5(O)CC5)CC4)C3)cn12` [Example 278], the IC50 on Menin-MLL (setting [3]) is 0.011 µM; in test [1] (Homo sapiens, MV4-11, 168 h), 0.0083 µM; in test [2] (Homo sapiens, 168 h) it was 0.024 µM.

Regarding `Cc1nc(F)c2c(-c3ccc(F)cc3C(=O)N3[C@H](C)COC[C@H]3C)cc(C3CN(CC4CCN(C(=O)C5COC5)CC4)C3)cn12` [Example 216], the IC50 on Menin-MLL (setting [3]) was found to be 0.023 µM; in test [1] (Homo sapiens, MV4-11, 168 h), 0.022 µM; in test [2] (Homo sapiens, 168 h) it was 0.032 µM.

With `Cc1nc(F)c2c(-c3ccc(F)cc3C(=O)N3CCOC[C@H]3C)cc(C3CN(CC4CCN(C(=O)CC(C)C)CC4)C3)cn12` [Example 271], the IC50 on Menin-MLL (setting [3]) was 0.027 µM; in test [1] (Homo sapiens, MV4-11, 168 h), 0.012 µM; in test [2] (Homo sapiens, 168 h) it was 0.033 µM.

Take `CCN(C(=O)c1cc(F)ccc1-c1cc(CC2CN([C@H](CCCN(C)CCOC)C(C)C)C2)n2c(C)cncc12)C(C)C` [Example 296-1, N-ethyl-5-fluoro-2-[6-({1-[(3R)-6-[(2-methoxyethyl)(methyl)amino]-2-methylhexan-3-yl]azacyclobutan-3-yl}methyl)-4-methylpyrrolo[1,2-a]pyrazin-8-yl]-N-(isopropyl)benzamide]: the IC50 at Menin-MLL (setting [3]) was 0.001 µM; in test [1] (Homo sapiens, MV4-11, 168 h), 0.00075 µM; in test [2] (Homo sapiens, 168 h), 0.003 µM.

Regarding `Cc1nc(F)c2c(-c3ccc(F)cc3C(=O)N3[C@H](C)COC[C@H]3C)cc(C3CN(CC4CCN(C(=O)C5CCOCC5)CC4)C3)cn12` [Example 221], the IC50 at Menin-MLL (setting [3]) came out at 0.027 µM; in test [1] (Homo sapiens, MV4-11, 168 h) it was 0.012 µM; in test [2] (Homo sapiens, 168 h), 0.027 µM.

Regarding `Cc1ncc2c(-c3ccc(F)cc3C(=O)N3CCC[C@H]3C)cc(C3CN(C(C)C4CCOCC4)C3)cn12` (stereo partly drawn) [Example 190], the half-maximal inhibitory concentration (IC50) at Menin-MLL (setting [3]) was 0.0295 µM; in test [1] (Homo sapiens, MV4-11, 168 h), 0.025 µM; in test [2] (Homo sapiens, 168 h) it was 0.04 µM.

With `Cc1nc(F)c2c(-c3ccc(F)cc3C(=O)N3CCOC[C@H]3C)cc(C3CN(CC4CCN(C(=O)CC#N)CC4)C3)cn12` [Example 249], the IC50 on Menin-MLL (setting [3]) came to 0.024 µM; in test [1] (Homo sapiens, MV4-11, 168 h) it was 0.05 µM; in test [2] (Homo sapiens, 168 h), 0.044 µM.

With `CCN(C(=O)c1cc(F)ccc1-c1cc(C2CN([C@H](CCCN(C)CCOC)C(C)C)C2)cn2c(C)nc(F)c12)C(C)C` [Example 307-2, N-ethyl-5-fluoro-2-(1-fluoro-6-{1-[(3R)-6-[(2-methoxyethyl)(methyl)amino]-2-methylhexan-3-yl]azacyclobutan-3-yl}-3-methylimidazo[1,5-a]pyridin-8-yl)-N-(isopropyl)benzamide], the IC50 was 0.006 µM at Menin-MLL (setting [3]); 0.00069 µM in test [1] (Homo sapiens, MV4-11, 168 h); 0.0037 µM in test [2] (Homo sapiens, 168 h).

One may read the IC50 as the concentration needed to halve the response being measured.
